Laboratory results taken from patent US20230203081A1, “LINCOSAMIDE ANTIBIOTICS AND USES THEREOF” (President and Fellows of Harvard College, priority 2020, published 2023).
In brackets after ≈: the same amount, converted by molar mass.

How the values were obtained:
Assay type in all cases: cell-based
[1] = tested on: broad panel of different clinical isolates; test: microbe, parasite or virus in culture
Procedure, shortened: (§1)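 Per CLSI, MICs by broth microdilution or agar dilution; strains other than streptococci and anaerobes were sub-cultured overnight at 35° C on blood agar, with a final broth inoculum of 5×10^5 CFU/mL.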

E. coli ATCC 25922 = test: MIC (broth microdilution or agar dilution, CLSI); conditions: Escherichia coli, ATCC25922
Procedure, shortened: as §1

[2] = tested on: S. pneumoniae MMX 3028 cErmB; test: MIC (broth microdilution or agar dilution, CLSI); conditions: Streptococcus pneumoniae, MMX3028CERMB
Procedure, shortened: as §1

S. pneumoniae ATCC 6303 = test: MIC (broth microdilution or agar dilution, CLSI); conditions: Streptococcus pneumoniae, ATCC6303
Procedure, shortened: as §1

S. aureus ATCC 29213 = test: MIC (broth microdilution or agar dilution, CLSI); conditions: Staphylococcus aureus, ATCC29213
Procedure, shortened: as §1

E. coli LptD = test: MIC (broth microdilution or agar dilution, CLSI); conditions: Escherichia coli, E. coli HAV#040; LptD; read-out: MIC
Procedure, shortened: as §1

S. aureus MMX 3035 cErmA = test: MIC (broth microdilution or agar dilution, CLSI); conditions: Staphylococcus aureus, MMX3035CERMA
Procedure, shortened: as §1

[3] = tested on: E. faecalis MMX 847; cErmB; test: MIC (broth microdilution or agar dilution, CLSI); conditions: Enterococcus faecalis
Procedure, shortened: as §1

S. pyogenes ATCC 19615 = test: MIC (broth microdilution or agar dilution, CLSI); conditions: Streptococcus pyogenes, ATCC19615
Procedure, shortened: as §1

E. faecalis ATCC 29212 = test: MIC (broth microdilution or agar dilution, CLSI); conditions: Enterococcus faecalis, ATCC29212
Procedure, shortened: as §1

S. aureus hVISA = test: MIC (broth microdilution or agar dilution, CLSI); conditions: Staphylococcus aureus
Procedure, shortened: as §1

[4] = tested on: S. pneumoniae MMX 3031 cMefA; test: MIC (broth microdilution or agar dilution, CLSI); conditions: Streptococcus pneumoniae, MMX3031CMEFA
Procedure, shortened: as §1

K. pneumoniae ATCC 10031 = test: MIC (broth microdilution or agar dilution, CLSI); conditions: Klebsiella pneumoniae, ATCC10031
Procedure, shortened: as §1

[5] = tested on: S. aureus ATCC BAA-1707 (MRSA); test: MIC (broth microdilution or agar dilution, CLSI); conditions: Staphylococcus aureus
Procedure, shortened: as §1

[6] = tested on: S. pyogenes MMX 946; cErmB; test: MIC (broth microdilution or agar dilution, CLSI); conditions: Streptococcus pyogenes
Procedure, shortened: as §1

S. aureus ATCC 700699 = test: MIC (broth microdilution or agar dilution, CLSI); conditions: Staphylococcus aureus, ATCC 700699 / VISA
Procedure, shortened: as §1

S. pneumoniae ATCC 49619 = test: MIC (broth microdilution or agar dilution, CLSI); conditions: Streptococcus pneumoniae, ATCC49619
Procedure, shortened: as §1

`CN[C@H](CC(C)C)C(=O)N[C@H]1C(=O)N[C@@H](CC(N)=O)C(=O)N[C@H]2C(=O)N[C@H]3C(=O)N[C@H](C(=O)N[C@H](C(=O)O)c4cc(O)cc(O)c4-c4cc3ccc4O)[C@H](O)c3ccc(c(Cl)c3)Oc3cc2cc(c3O[C@@H]2O[C@H](CO)[C@@H](O)[C@H](O)[C@H]2O[C@H]2C[C@](C)(N)[C@H](O)[C@H](C)O2)Oc2ccc(cc2Cl)[C@H]1O` [Vancomycin] was tested, and the MIC ([1]; Acinetobacter baumannii, A. baumannii HAV#651, Clinical) was 128 µg/mL (≈ 88.3 µM), the MIC ([1]; Acinetobacter baumannii, A. baumannii HAV#652 Clinical) was 128 µg/mL (≈ 88.3 µM) and the MIC ([1]; Acinetobacter baumannii, A. baumannii HAV#653, Clinical) was 128 µg/mL (≈ 88.3 µM). It also gave an MIC ([1]; Acinetobacter baumannii, A. baumannii HAV#654, Clinical) of 128 µg/mL (≈ 88.3 µM), an MIC ([1]; Acinetobacter baumannii, A. baumannii HAV#655, Clinical) of 128 µg/mL (≈ 88.3 µM) and an MIC ([1]; Acinetobacter baumannii, A. baumannii HAV#656, Clinical) of over 128 µg/mL. For the same compound, the MIC ([1]; Acinetobacter baumannii, A. baumannii HAV#657, Clinical) was over 128 µg/mL, the MIC ([1]; Acinetobacter baumannii, A. baumannii HAV#658, Clinical) was over 128 µg/mL and the MIC ([1]; Acinetobacter baumannii, A. baumannii HAV#659, Clinical) was over 128 µg/mL. For the same compound, the MIC ([1]; Acinetobacter baumannii, A. baumannii HAV#660, Clinical) was over 128 µg/mL, the MIC ([1]; Acinetobacter baumannii, A. baumannii HAV#661, Clinical) was 128 µg/mL (≈ 88.3 µM) and the MIC ([1]; Acinetobacter baumannii, A. baumannii HAV#662, Clinical) was over 128 µg/mL. It also gave an MIC ([1]; Acinetobacter baumannii, A. baumannii HAV#663, Clinical) of 128 µg/mL (≈ 88.3 µM), an MIC ([1]; Acinetobacter baumannii, A. baumannii HAV#664, Carbapenem R) of over 128 µg/mL and an MIC ([1]; Enterococcus faecalis, E. faecalis HAV#602, Clincal) of 4 µg/mL (≈ 2.76 µM). For the same compound, the MIC ([1]; Enterococcus faecalis, E. faecalis HAV#607, Clinical) was over 128 µg/mL, the MIC ([1]; Enterococcus faecalis, E. faecalis HAV#608, Clinical) was 16 µg/mL (≈ 11 µM) and the MIC ([1]; Enterococcus faecalis, E. faecalis HAV#609, Clinical) was 32 µg/mL (≈ 22.1 µM). For the same compound, the MIC ([1]; Enterococcus faecalis, E. faecalis HAV#610, Clinical) was 32 µg/mL (≈ 22.1 µM), the MIC ([1]; Enterococcus faecalis, S. faecalis 5060, Line R & Vanco R) was over 256 µg/mL and the MIC ([1]; Enterococcus faecalis, S. faecalis 5074, Line R) was 2 µg/mL (≈ 1.38 µM). For the same compound, the MIC ([1]; Enterococcus faecalis, VRE, E. faecalis HAV#251, Clinical VRE) was 8 µg/mL (≈ 5.52 µM), the MIC ([1]; Enterococcus faecalis, VRE, E. faecalis HAV#606, Clinical) was over 128 µg/mL and the MIC ([1]; Enterococcus faecium, E. faecium HAV#317, Clinical) was 2 µg/mL (≈ 1.38 µM). The MIC ([1]; Enterococcus faecium, E. faecium HAV#324, Clinical) was over 128 µg/mL, the MIC ([1]; Enterococcus faecium, E. faecium HAV#327, Clinical) was 4 µg/mL (≈ 2.76 µM) and the MIC ([1]; Enterococcus faecium, E. faecium HAV#328, Clinical) was over 128 µg/mL. It also gave an MIC ([1]; Enterococcus faecium, E. faecium HAV#329, Clinical) of over 128 µg/mL, an MIC ([1]; Enterococcus faecium, VRE, E. faecium HAV#318, VanA) of over 64 µg/mL and an MIC ([1]; Enterococcus faecium, VRE, E. faecium HAV#319, Line R & Vanco R) of over 256 µg/mL. The MIC ([1]; Enterococcus faecium, VRE, E. faecium HAV#320, Clinical) was over 128 µg/mL, the MIC ([1]; Escherichia coli, E. coli HAV#503, Clinical) was 128 µg/mL (≈ 88.3 µM) and the MIC ([1]; Escherichia coli, E. coli HAV#511, Clinical) was over 128 µg/mL. For the same compound, the MIC ([1]; Escherichia coli, E. coli HAV#512, Clinical) was over 128 µg/mL, the MIC ([1]; Escherichia coli, E. coli HAV#513, Clinical) was over 128 µg/mL and the MIC ([1]; Escherichia coli, E. coli HAV#514, Clinical) was 128 µg/mL (≈ 88.3 µM). For the same compound, the MIC ([1]; Escherichia coli, E. coli HAV#516, ESBL-producing) was 128 µg/mL (≈ 88.3 µM), the MIC ([1]; Haemophilus influenzae, ATCC9007, H. influenzae HAV#376, ATCC-9007) was over 64 µg/mL and the MIC ([1]; Klebsiella pneumoniae, K. pneumoniae HAV#404, Clinical) was over 128 µg/mL. The MIC ([1]; Klebsiella pneumoniae, K. pneumoniae HAV#405, Clinical) was over 128 µg/mL, the MIC ([1]; Klebsiella pneumoniae, K. pneumoniae HAV#406, Clinical) was over 128 µg/mL and the MIC ([1]; Klebsiella pneumoniae, K. pneumoniae HAV#407, Clinical) was over 128 µg/mL. For the same compound, the MIC ([1]; Klebsiella pneumoniae, K. pneumoniae HAV#408, Clinical) was over 128 µg/mL, the MIC ([1]; Klebsiella pneumoniae, K. pneumoniae HAV#409, ESBL-producing) was over 128 µg/mL and the MIC ([1]; Staphylococcus aureus, MRSA, S. aureus HAV#0107, MRSA Col(Colindale, England)) was 2 µg/mL (≈ 1.38 µM). The MIC ([1]; Staphylococcus aureus, MRSA, S. aureus HAV#218, Line R) was 1 µg/mL (≈ 0.69 µM), the MIC ([1]; Staphylococcus aureus, MRSA, S. aureus HAV#220, Line R) was 1 µg/mL (≈ 0.69 µM) and the MIC ([1]; Staphylococcus aureus, MSSA, S. aureus HAV#219, Line R) was 1 µg/mL (≈ 0.69 µM). The MIC ([1]; Staphylococcus aureus, S. aureus HAV#051, mecA, norA, spcl, ermA, aad1, aac6′-aph2″) was 2 µg/mL (≈ 1.38 µM), the MIC ([1]; Staphylococcus aureus, S. aureus HAV#052, mecA, norA, fosB, blaZ) was 2 µg/mL (≈ 1.38 µM) and the MIC ([1]; Staphylococcus aureus, S. aureus HAV#053 mecA, norA, fosB) was 2 µg/mL (≈ 1.38 µM). For the same compound, the MIC ([1]; Staphylococcus aureus, S. aureus HAV#054, mecA, norA, spcl, aad1, fosB, ermA, aac6′-aph2″, blaZ) was 1 µg/mL (≈ 0.69 µM), the MIC ([1]; Staphylococcus aureus, S. aureus HAV#211, Clinical) was 0.5 µg/mL (≈ 0.345 µM) and the MIC ([1]; Staphylococcus aureus, S. aureus HAV#212, Clinical) was 0.5 µg/mL (≈ 0.345 µM). It also gave an MIC ([1]; Staphylococcus aureus, S. aureus HAV#213, Clinical) of 0.5 µg/mL (≈ 0.345 µM), an MIC ([1]; Staphylococcus aureus, S. aureus HAV#214, Clinical) of 0.5 µg/mL (≈ 0.345 µM) and an MIC ([1]; Staphylococcus aureus, S. aureus HAV#215, Clinical) of 1 µg/mL (≈ 0.69 µM). It also gave an MIC ([1]; Staphylococcus aureus, S. aureus HAV#216, Clinical, cfr) of over 64 µg/mL, an MIC ([1]; Staphylococcus aureus, S. aureus HAV#217, cfr) of over 64 µg/mL and an MIC ([1]; Staphylococcus aureus, VISA, S. aureus HAV#203, Clinical (VISA)) of 8 µg/mL (≈ 5.52 µM). For the same compound, the MIC ([1]; Staphylococcus epidermidis, S. epidermidis HAV# 275 Clinical, cfr) was over 64 µg/mL, the MIC ([1]; Staphylococcus epidermidis, S. epidermidis HAV# 276, cfr) was over 64 µg/mL and the MIC ([1]; Staphylococcus epidermidis, S. epidermidis HAV#277, Line R) was 2 µg/mL (≈ 1.38 µM). It also gave an MIC ([1]; Staphylococcus epidermidis, S. epidermidis HAV#278 Line R) of 2 µg/mL (≈ 1.38 µM), an MIC ([1]; Staphylococcus epidermidis, S. epidermidis HAV#279, Line R) of 2 µg/mL (≈ 1.38 µM) and an MIC ([1]; Staphylococcus haemolyticus, S. haemolyticus 5052, Line R & Methicillin R) of 1 µg/mL (≈ 0.69 µM). For the same compound, the MIC ([1]; Streptococcus pneumoniae, ATCC700673, S. pneumoniae HAV#352, ATCC 700673, MDR) was 0.5 µg/mL (≈ 0.345 µM), the MIC ([1]; Streptococcus pneumoniae, ATCCBAA255, S. pneumoniae HAV#354, ATCC-BAA-255) was 1 µg/mL (≈ 0.69 µM) and the MIC ([1]; Streptococcus pneumoniae, ATCCBAA334, S. pneumoniae HAV#353, ATCC-BAA-334) was 0.5 µg/mL (≈ 0.345 µM). For the same compound, the MIC ([1]; Streptococcus pneumoniae, S. pneumoniae HAV#356, Clinical) was 2 µg/mL (≈ 1.38 µM), the MIC ([1]; Streptococcus pneumoniae, S. pneumoniae HAV#358, Clinical) was 1 µg/mL (≈ 0.69 µM) and the MIC (E. coli ATCC 25922) was over 128 µg/mL. It also gave an MIC [2] of 0.25 µg/mL (≈ 0.173 µM), an MIC (S. pneumoniae ATCC 6303) of 0.5 µg/mL (≈ 0.345 µM) and an MIC (S. aureus ATCC 29213) of 1 µg/mL (≈ 0.69 µM). The MIC (E. coli LptD) was 1 µg/mL (≈ 0.69 µM), the MIC (S. aureus MMX 3035 cErmA) was 2 µg/mL (≈ 1.38 µM) and the MIC [3] was over 64 µg/mL. It also gave an MIC (S. pyogenes ATCC 19615) of 0.5 µg/mL (≈ 0.345 µM), an MIC (E. faecalis ATCC 29212) of 4 µg/mL (≈ 2.76 µM) and an MIC (S. aureus hVISA) of 2 µg/mL (≈ 1.38 µM). It also gave an MIC [4] of 0.5 µg/mL (≈ 0.345 µM), an MIC (K. pneumoniae ATCC 10031) of over 64 µg/mL and an MIC [5] of 1 µg/mL (≈ 0.69 µM). The MIC [6] was 0.5 µg/mL (≈ 0.345 µM), the MIC (S. aureus ATCC 700699) was 8 µg/mL (≈ 5.52 µM) and the MIC (S. pneumoniae ATCC 49619) was 0.5 µg/mL (≈ 0.345 µM).
